Source: patent US11299480B2, “2-arylsulfonamido-N-arylacetamide derivatized STAT3 inhibitors” (University of Hawaii, priority 2017, dated 2022)
Read-outs that look alike come from different tables or passages of the source.

Columns and labels:
Stat3 [1] = target: Stat3 (Mus musculus, UniProt P42227); format: biochemical
Procedure: FIG. 1. Effect of select compounds of the present invention on Stat3 DNA-binding activity in vitro. […] Positions of Stat3:DNA complexes in gel are labeled; control lanes (0) represent nuclear extracts pre-treated with 10% DMSO.
(§1) Except where indicated, nuclear extracts were pre-incubated with compound for 30 min at room temperature prior to incubation with the radiolabeled probe for 30 min at 30° C. before subjecting to EMSA analysis. Where appropriate, bands corresponding to Stat3:DNA complexes were scanned and quantified for each concentration of compound using ImageJ and plotted as percent of control (DMSO) against concentration of compound, from which the IC50 values were derived.

pY705Stat3 [2] = experiment: Constitutive Stat3 tyrosine phosphorylation, immunoblot, MDA-MB-231 cells; format: cell-based, human; settings: MDA-MB-231, 5 μM, 1 h treatment
Procedure: (§2) FIG. 3. Effects of select compounds of the present invention on Stat3 DNA-binding activity and Stat3 tyrosine phosphorylation in cells. (FIG. 3A) EMSA analysis of Stat3 DNA-binding activity in nuclear extracts of equal total protein prepared from cells treated with DMSO (0 as control, Con), 5 or 10 μM of compounds for 1-34 h. Positions of Stat3:DNA complexes in gel are labeled. […] Positions of Stat3:DNA complexes or proteins in gel are shown; control (0 or Con) lane represents whole-cell lysates or nuclear extracts prepared from 0.05% DMSO-treated cells. […] Data are representative of 2-3 independent determinations.
(§3) All antibodies tested were purchased from Cell Signaling Technology.
(§4) Altogether, the new analogs show strong, albeit variable degrees of inhibition of constitutive Stat3 DNA-binding activity and Tyr phosphorylation in human tumor cells.

pY705Stat3 [3] = experiment: Constitutive Stat3 tyrosine phosphorylation, immunoblot, MDA-MB-468 cells; format: cell-based, human; settings: MDA-MB-468, 5 μM, 1 h treatment (inhibition stated only for MDA-MB-231)
Procedure: as §2, §3, §4

in vitro [4] = settings: mouse, liver microsomes
in vitro [5] = settings: human, liver microsomes
[6] = Aqueous solubility (PBS, SGF, SIF)
Caco-2 cells = experiment: Cell membrane permeability, Caco-2 cells assay; settings: for Caco-2 Cells Permeability A to B / Caco-2 Cells Recovery A to B: apical to basolateral; for Caco-2 Cells Permeability A to B / Caco-2 Cells Permeability B to A: first number of cell, 10^−6 cm/sec; for Caco-2 Cells Recovery A to B / Caco-2 Cells Recovery B to A: second number of cell; for Caco-2 Cells Permeability B to A / Caco-2 Cells Recovery B to A: basolateral to apical
[7] = Mouse liver microsomal (MLM) metabolic stability; settings: mouse, liver microsomes
[8] = Human liver microsomal (HLM) metabolic stability; settings: liver microsomes
Stat5 = Stat5 DNA-binding activity in vitro, EMSA (MGFe probe); format: biochemical; settings: 10 μM or 0-30 μM compound
Excerpt: FIG. 2. […] Positions of Stat:DNA complexes in gel are labeled; control lanes (0 or Con) represent nuclear extracts pre-treated with 10% DMSO. […] Where appropriate, bands corresponding to Stat3:DNA complexes were scanned and quantified for each concentration of compound using ImageJ and plotted as percent of control (DMSO) against concentration of compound, from which the IC50 values were derived.

Stat1 = Stat1 DNA-binding activity in vitro, EMSA (MGFe probe); format: biochemical; settings: 10 μM or 0-30 μM compound
Excerpt: FIG. 2. Effects of select compounds of the present invention on Stat1 and Stat5 DNA-binding activity. […] Positions of Stat:DNA complexes in gel are labeled; control lanes (0 or Con) represent nuclear extracts pre-treated with 10% DMSO. Data are representative of 1-3 independent determinations. […] Where appropriate, bands corresponding to Stat3:DNA complexes were scanned and quantified for each concentration of compound using ImageJ and plotted as percent of control (DMSO) against concentration of compound, from which the IC50 values were derived. In order to determine the specificity of select new analogs active against Stat3 activity, the inventors investigated the effects on the inhibition of other STAT family members, including Stat1 and Stat5 DNA-binding activity in vitro.

Stat3 [9] = target: Stat3 (Homo sapiens (Human), UniProt P40763); experiment: Stat3 DNA-binding activity in nuclear extracts of treated MDA-MB-231 cells, EMSA; format: cell-based; settings: 10 μM
Procedure: as §2
as §1, with “The ^32P-labeled oligonucleotide probes used were hSIE (high affinity sis-inducible element from the c-fos gene, m67 variant, 5′-[…]) (SEQ ID NO: 1) that binds Stat1 and Stat3 and MGFe (mammary gland factor element from the bovine β-casein gene promoter, 5′-[…]) (SEQ ID NO: 2) for Stat1 and Stat5 binding. Except” for “Except”
Select compounds of the invention were investigated for their inhibitory effects of the active analogs on intracellular Stat3 signaling. […] Nuclear extracts were prepared and subjected to EMSA analysis for Stat3 DNA-binding activity. […] Stat3 DNA-binding activity in MDA-MB-231 cells was inhibited by both Examples 1 and 5 following treatment at 3 h, with little change at 1 h (FIG. 3A).

MDA-MB-231 = experiment: CyQuant cell viability assay, MDA-MB-231; format: cell-based, human; settings: MDA-MB-231, CyQuant, 0-10 μM, 72 h
Procedure: (§5) FIG. 6. Effects of select compounds of the present invention on cell viability. […] Cells were first grown in 6-well plates then were treated once with 0-10 μM of the indicated compounds for 72 h. Viable cells were assayed using CyQuant cell proliferation kit and plotted as % cell viability against concentration. Control (0) represents 0.05% DMSO-treated cells. Values, mean ± S.D. of 2-3 independent determinations.
(§6) Cells in 6-well or 96-well plates were treated with or without compounds for the indicated concentrations and time, and subjected to MTT assay or CyQuant cell proliferation assay (Invitrogen/ThermoFisher Scientific), or harvested and the viable cells were counted by trypan blue exclusion with phase-contrast microscopy.
(§7) Constitutive Stat3 activity promotes tumor cell growth and proliferation and survival (Darnell J E (2005) Nat Med. 11:595-6; Bowman T, et al., (2000) Oncogene 19:2474-2488). Some of the compounds of the present invention were tested against tumor cells harboring constitutively-active Stat3.

MDA-MB-468 = experiment: CyQuant cell viability assay, MDA-MB-468; format: cell-based, human; settings: MDA-MB-468, CyQuant, 0-10 μM, 72 h
Procedure: as §5, §6, §7

MCF7 = experiment: CyQuant cell viability assay, MCF7; format: cell-based, human; settings: MCF7 (no aberrantly-active Stat3), CyQuant, 72 h
Procedure: as §5, §6, §7

in vitro [10] = settings: human, Caco-2
pJak2 = experiment: Stat3-independent signaling, immunoblot of pJak2, MDA-MB-231 cells; format: cell-based, human; settings: MDA-MB-231, 5 μM, 24 h treatment
Excerpt: (§8) FIG. 4. Effects of select compounds of the present invention on Stat3-independent signal transduction events. […] Positions of proteins in gel are labeled; control lane (Con) represents whole-cell lysate prepared from 0.05% DMSO-treated cells.
as §3, §4

pSrc = experiment: Stat3-independent signaling, immunoblot of pSrc, MDA-MB-231 cells; format: cell-based, human; settings: MDA-MB-231, 5 μM, 24 h treatment
Excerpt: as §8, §3, §4

pERK1/2 = experiment: Stat3-independent signaling, immunoblot of pERK1/2, MDA-MB-231 cells; format: cell-based, human; settings: MDA-MB-231, 5 μM, 24 h treatment
Excerpt: as §8, §3, §4

[11] = Stat3 DNA-binding activity in vitro, nuclear extracts pre-incubated with compound 30 min at room temperature, hSIE probe, read-out: EMSA IC50
[12] = simulated gastric fluid (SGF), pH 1.2, simulated gastric fluid

Chain of Stat3 (Homo sapiens (Human), UniProt P40763) (P40763 whole entry): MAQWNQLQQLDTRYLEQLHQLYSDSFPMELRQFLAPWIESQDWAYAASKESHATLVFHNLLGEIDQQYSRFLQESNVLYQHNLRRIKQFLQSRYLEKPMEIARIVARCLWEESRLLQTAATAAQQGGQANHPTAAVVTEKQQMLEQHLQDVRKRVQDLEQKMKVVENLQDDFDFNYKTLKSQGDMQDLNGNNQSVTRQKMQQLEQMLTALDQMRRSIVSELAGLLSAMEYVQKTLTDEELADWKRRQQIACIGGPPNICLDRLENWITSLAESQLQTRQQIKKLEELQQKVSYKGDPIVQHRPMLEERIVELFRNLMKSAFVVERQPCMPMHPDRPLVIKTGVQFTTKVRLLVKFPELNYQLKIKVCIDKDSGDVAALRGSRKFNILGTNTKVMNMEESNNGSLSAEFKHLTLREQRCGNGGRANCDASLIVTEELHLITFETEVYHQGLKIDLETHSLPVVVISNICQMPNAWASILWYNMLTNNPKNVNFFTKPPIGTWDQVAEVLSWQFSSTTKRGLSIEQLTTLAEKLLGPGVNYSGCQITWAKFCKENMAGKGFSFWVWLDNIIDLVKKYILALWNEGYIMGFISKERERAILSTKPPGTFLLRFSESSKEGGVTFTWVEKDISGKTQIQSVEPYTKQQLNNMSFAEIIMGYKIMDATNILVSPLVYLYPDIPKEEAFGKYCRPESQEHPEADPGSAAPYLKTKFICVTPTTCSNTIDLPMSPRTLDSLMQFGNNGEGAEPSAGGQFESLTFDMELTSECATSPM
Chain of Stat3 (Mus musculus, UniProt P42227) (P42227 2-770 limits assumed): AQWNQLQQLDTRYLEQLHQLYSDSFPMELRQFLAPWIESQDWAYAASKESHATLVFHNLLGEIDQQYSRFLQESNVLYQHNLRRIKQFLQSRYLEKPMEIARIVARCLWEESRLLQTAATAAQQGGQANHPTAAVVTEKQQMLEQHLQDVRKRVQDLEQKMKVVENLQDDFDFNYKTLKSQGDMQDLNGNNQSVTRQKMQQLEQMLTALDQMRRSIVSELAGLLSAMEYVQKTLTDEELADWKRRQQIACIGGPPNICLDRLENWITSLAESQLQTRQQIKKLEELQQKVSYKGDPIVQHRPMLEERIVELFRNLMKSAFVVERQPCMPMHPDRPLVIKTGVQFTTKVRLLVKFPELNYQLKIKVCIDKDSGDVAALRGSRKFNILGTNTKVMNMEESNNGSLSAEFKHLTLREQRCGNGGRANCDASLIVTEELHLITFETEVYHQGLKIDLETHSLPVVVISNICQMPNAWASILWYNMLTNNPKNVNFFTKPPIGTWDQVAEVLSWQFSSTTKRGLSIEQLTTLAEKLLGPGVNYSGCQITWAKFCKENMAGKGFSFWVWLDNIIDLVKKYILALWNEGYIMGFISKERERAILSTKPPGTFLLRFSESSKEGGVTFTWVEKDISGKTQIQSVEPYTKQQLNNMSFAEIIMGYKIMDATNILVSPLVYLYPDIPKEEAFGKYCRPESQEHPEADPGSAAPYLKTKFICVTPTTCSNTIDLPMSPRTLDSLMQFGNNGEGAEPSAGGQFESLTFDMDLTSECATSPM

Structure (SMILES): O=C(O)c1ccc(N(Cc2ccc(C3CCCCC3)cc2)C(=O)[C@@H]2CCCN2S(=O)(=O)c2c(F)c(F)c(F)c(F)c2F)cc1O [Example 26, (S)-4-(N-(4-Cyclohexylbenzyl)-1-((pentafluorophenyl)sulfonyl)pyrrolidine-2-carboxamido)-2-hydroxybenzoic acid]
- IC50 (Stat3 [1]; [11]): 7.2 ± 3.4 µM
- pY705Stat3 levels (pY705Stat3 [2]): inhibited pY705Stat3 levels
- pY705Stat3 levels (pY705Stat3 [3]): only inhibited pY705Stat3 levels in MDA-MB-231

Structure (SMILES): C[C@H](C(=O)N(Cc1ccc(C2CCCCC2)cc1)c1ccc(C(=O)[O-])c(O)c1)N(C)S(=O)(=O)c1c(F)c(F)c(F)c(F)c1F.[Na+]
- solubility (physchem; [12]): 1.3 µg/mL
- half-life (in vitro [4]): ≤ 5 min
- half-life (in vitro [5]): ≤ 5 min
- solubility in PBS buffer pH 7.4 [6]: 127 μg/mL
- solubility in simulated intestinal fluid (SIF) [6]: 127 µg/mL
- Solubility PBS ([6]; PBS buffer pH 7.4): 127 micrograms/milliliter
- Solubility SIF ([6]; simulated intestinal fluid): 127 micrograms/milliliter
- Caco-2 Cells Permeability A to B (Caco-2 cells): 0
- Caco-2 Cells Recovery A to B (Caco-2 cells): 6%
- Caco-2 Cells Permeability B to A (Caco-2 cells): 0
- Caco-2 Cells Recovery B to A (Caco-2 cells): 2%
- Caco-2 permeability (Caco-2 cells; compounds with cyclohexyl group instead of THP ring): no appreciable permeability
- Metabolic Stability Half-Life MLM [7]: 5 min
- Metabolic Stability Half-Life HLM [8]: 4 min

Structure (SMILES): C[C@H](C(=O)N(Cc1ccc(C2CCOCC2)cc1)c1ccc(C(=O)O)c(O)c1)N(C)S(=O)(=O)c1c(F)c(F)c(F)c(F)c1F [Example 57, (R)-2-Hydroxy-4-(2-((2,3,4,5,6-pentafluoro-N-methylphenyl)sulfonamido)-N-(4-(tetrahydro-2H-pyran-4-yl)benzyl)propanamido)benzoic acid]
- IC50 (Stat3 [1]; [11]): 5 ± 0.8 µM
- effect on Stat5 DNA-binding activity (Stat5): minimum effect

Structure (SMILES): C[C@@H](C(=O)N(Cc1ccc(C2CCCCC2)cc1)c1ccc(C(=O)O)c(O)c1)N(C)S(=O)(=O)c1c(F)c(F)c(F)c(F)c1F [Example 5, (S)-4-(N-(4-Cyclohexylbenzyl)-2-((2,3,4,5,6-pentafluoro-N-methylphenyl)sulfonamido)propan-amido)-2-hydroxybenzoic acid]
- effect on Stat1 DNA-binding activity (Stat1): inhibited Stat1 activity to a moderate extent
- Stat3 DNA-binding activity in MDA-MB-231 cells (Stat3 [9]; 1 h treatment): little change
- Stat3 DNA-binding activity in MDA-MB-231 cells (Stat3 [9]; 3 h treatment): inhibited
- Stat3 DNA-binding activity in MDA-MB-231 cells (Stat3 [9]; 24 h treatment): inhibited

Structure (SMILES): O=C(O)c1ccc(N(Cc2ccc(C3CCCCC3)cc2)C(=O)[C@H]2CCCN2S(=O)(=O)c2c(F)c(F)c(F)c(F)c2F)cc1O [Example 25, (R)-4-(N-(4-Cyclohexylbenzyl)-1-((pentafluorophenyl)sulfonyl)pyrrolidine-2-carboxamido)-2-hydroxybenzoic acid]
- IC50 (Stat3 [1]; EMSA, read-out: IC50, inhibition of Stat3 DNA-binding activity in vitro): 2.4 µM
- IC50 (Stat3 [1]; [11]): 2.4 ± 0.4 µM
- pY705Stat3 levels (pY705Stat3 [2]): inhibited pY705Stat3 levels
- pY705Stat3 levels (pY705Stat3 [3]): only inhibited pY705Stat3 levels in MDA-MB-231
- cell viability (MDA-MB-231): suppressed the viability
- cell viability (MDA-MB-468): suppressed the viability
- cell viability (MCF7): only weakly or not inhibited

Structure (SMILES): O=C(O)c1ccc(N(Cc2ccc(C3CCOCC3)cc2)C(=O)[C@H]2CCCN2S(=O)(=O)c2c(F)c(F)c(F)c(F)c2F)c(F)c1 [Example 60, (R)-3-Fluoro-4-(1-((perfluorophenyl)sulfonyl)-N-(4-(tetrahydro-2H-pyran-4-yl)benzyl)pyrrolidine-2-carboxamido)benzoic acid]
- half-life (in vitro [4]): 26 min
- half-life (in vitro [5]): 54 min
- Papp (in vitro [10]): 0.2 ×10⁻⁶ cm/s
- Caco-2 Cells Permeability A to B (Caco-2 cells): 0.1
- Caco-2 Cells Recovery A to B (Caco-2 cells): 8%
- Caco-2 Cells Permeability B to A (Caco-2 cells): 0.1
- Caco-2 Cells Recovery B to A (Caco-2 cells): 67%

Structure (SMILES): O=C([O-])c1ccc(N(Cc2ccc(C3CCOCC3)cc2)C(=O)[C@H]2CCCN2S(=O)(=O)c2c(F)c(F)c(F)c(F)c2F)cc1O.[Na+]
- solubility (physchem; PBS buffer, pH 7.4, aqueous buffer): 132 µg/mL
- solubility (physchem; [12]): 0.4 µg/mL
- solubility (physchem; simulated intestinal fluid (SIF), fassgf or other biorelevant): 129 µg/mL
- half-life (in vitro [4]): 18 min
- half-life (in vitro [5]): 15 min
- Papp (in vitro [10]): 0.1 ×10⁻⁶ cm/s
- Caco-2 Cells Permeability A to B (Caco-2 cells): 0.2
- Caco-2 Cells Recovery A to B (Caco-2 cells): 34%
- Caco-2 Cells Permeability B to A (Caco-2 cells): 0.2
- Caco-2 Cells Recovery B to A (Caco-2 cells): 60%

Structure (SMILES): C[C@H](C(=O)N(Cc1ccc(C2CCCCC2)cc1)c1ccc(C(=O)O)cc1Cl)N(C)S(=O)(=O)c1c(F)c(F)c(F)c(F)c1F [Example 40, (R)-3-chloro-4-(N-(4-cyclohexylbenzyl)-2-((2,3,4,5,6-pentafluoro-N-methylphenyl)sulfonamido)propanamido)benzoic acid]
- effect on pJak2 (pJak2): little effect
- effect on pSrc (pSrc): little effect
- effect on pERK1/2 (pERK1/2): little effect

Structure (SMILES): C[C@H](C(=O)N(Cc1ccc(C2CCOCC2)cc1)c1ccc(C(=O)[O-])c(O)c1)N(C)S(=O)(=O)c1c(F)c(F)c(F)c(F)c1F.[Na+] [Example 59, Sodium (R)-2-hydroxy-4-(2-((2,3,4,5,6-pentafluoro-N-methylphenyl)sulfonamido)-N-(4-(tetrahydro-2H-pyran-4-yl)benzyl)propanamido)benzoate]
- half-life (in vitro [4]): ≤ 5 min
- half-life (in vitro [5]): ≤ 5 min
- Papp B→A (in vitro [10]): 0.7 ×10⁻⁶ cm/s
- recovery (in vitro [10]): 31%
- Caco-2 Cells Recovery B to A (Caco-2 cells): 40%
- Metabolic Stability Half-Life MLM [7]: 4 min
- Metabolic Stability Half-Life HLM [8]: 5 min
